Among the data in PubChem BioAssay (NCI) are TGI and GI50 values, retold here.

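Exposure lasted 48 hours, with cells grown in 96-well plates and compounds tested at five concentrations. Here, GI50 denotes the concentration required for 50% inhibition of growth. TGI marks complete inhibition of growth.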

Among the test systems are SK-MEL-2 melanoma; KM12 colon; MDA-MB-435; M14 melanoma; DU-145 prostate; BT-549 breast; SNB-19 CNS; SF-268 CNS; MDA-N; MDA-MB-231 breast; 786-0 renal; SR leukemia.
Assay in all cases: NCI-60 cell line screen, 48 h

`CC[n+]1c(/C=C/c2ccc(N(CCCl)CCCl)cc2)ccc2cc(NC(=O)/C=C/c3ccccc3)ccc21`: the TGI in the test with SK-MEL-2 melanoma amounted to 1.27 µM; in the test with KM12 colon, 1.58 µM; in the test on MDA-MB-435 it was 1.07 µM; in the test with M14 melanoma, 3.28 µM; in the test on DU-145 prostate it was 1.64 µM; in the test on BT-549 breast, 1.58 µM. Besides, the TGI in the test on SNB-19 CNS came to 1.67 µM; with SF-268 CNS, 1.96 µM; in the test with MDA-N, 1.7 µM; with MDA-MB-231 breast, 1.09 µM; in the test with 786-0 renal, 3.22 µM; with SR leukemia, 0.728 µM.

On to `CSc1ccc(/C=C2\N=C(c3ccccc3)N(c3nc4ccc(Sc5ccccc5)cc4[nH]3)C2=O)cc1`, for which the TGI with SK-MEL-2 melanoma was 37 µM; in the test on KM12 colon, 52 µM; with MDA-MB-435, 16.1 µM; in the test on M14 melanoma, 32.5 µM; with DU-145 prostate it was 70.7 µM; with BT-549 breast, 50.1 µM. Besides, the TGI was above 89.2 µM in the test with SNB-19 CNS; above 77.8 µM in the test on SF-268 CNS; 18 µM in the test on MDA-N; 55.5 µM in the test with MDA-MB-231 breast; 50.8 µM in the test on 786-0 renal; above 87.5 µM in the test on SR leukemia. Moreover, the GI50 in the test on SR leukemia is 13.7 µM.

Take `CCN(CC)C(=S)SS(=O)(=O)c1ccc([N+](=O)[O-])cc1`: the TGI with SK-MEL-2 melanoma is above 100 µM; in the test with KM12 colon it was 24.5 µM; in the test with MDA-MB-435, 54.7 µM; with M14 melanoma it was 28.6 µM; with DU-145 prostate, 82.4 µM; in the test on BT-549 breast it was above 100 µM. Also, the TGI is above 100 µM in the test with SNB-19 CNS; above 100 µM with SF-268 CNS; above 100 µM with MDA-N; 66.4 µM with MDA-MB-231 breast; 32.4 µM with 786-0 renal; 54.5 µM in the test on SR leukemia. Moreover, the GI50 in the test on KM12 colon is 11.1 µM; in the test on MDA-MB-435, 23.2 µM; with M14 melanoma, 14.9 µM; with DU-145 prostate, 27.2 µM; in the test on SF-268 CNS, above 100 µM; with MDA-N it was 30.2 µM. For the same compound, the GI50 in the test with MDA-MB-231 breast was 25.9 µM.

As to `COc1cc2c(cc1OC)CC(N=[N+]=[N-])c1cc(OC)c(OC)cc1/C=C\2` (stereo not given), the TGI in the test on SK-MEL-2 melanoma is above 100 µM; in the test on KM12 colon it was above 100 µM; in the test on MDA-MB-435 it was above 100 µM; in the test on M14 melanoma it was above 100 µM; in the test with DU-145 prostate, above 100 µM; in the test with BT-549 breast, 38.8 µM. Further, the TGI in the test on SNB-19 CNS was above 100 µM; with SF-268 CNS it was above 100 µM; in the test on MDA-N, 25.2 µM; in the test on MDA-MB-231 breast it was above 100 µM; with 786-0 renal, above 100 µM; in the test on SR leukemia, above 100 µM.

For `N#CC1(C#N)NC(c2ccsc2)C(C#N)(C#N)NC1c1ccsc1` (stereo not given), the TGI in the test with SK-MEL-2 melanoma, with KM12 colon, with MDA-MB-435, in the test on M14 melanoma, in the test with DU-145 prostate and with BT-549 breast was above 100 µM in each case. Further, the TGI in the test on SNB-19 CNS, in the test on SF-268 CNS, in the test with MDA-N, with MDA-MB-231 breast, in the test on 786-0 renal and with SR leukemia was above 100 µM each time.

As for `CC[C@@H](/C=C\CCC1(C[C@H](O)CCC=C(C)C)OCCO1)O[Si](C(C)C)(C(C)C)C(C)C`, the TGI with SK-MEL-2 melanoma is 30.7 µM; with KM12 colon, above 100 µM; with MDA-MB-435, above 100 µM; with M14 melanoma, 72.7 µM; in the test with DU-145 prostate, above 100 µM; in the test with BT-549 breast it was 63.6 µM. For the same compound, the TGI in the test on SNB-19 CNS was 33.8 µM; with SF-268 CNS it was 41.9 µM; in the test with MDA-N it was above 100 µM; in the test on MDA-MB-231 breast, 31.2 µM; with 786-0 renal, 31.4 µM; in the test with SR leukemia, 51.3 µM.

In the case of `Cc1nnc2n1-c1ccccc1C(=S)N1CSCC21` (stereo not given), the TGI with SK-MEL-2 melanoma, with KM12 colon, with MDA-MB-435, with M14 melanoma, in the test on DU-145 prostate and with BT-549 breast was above 100 µM each time. Besides, the TGI in the test on SNB-19 CNS, with SF-268 CNS, in the test on MDA-N, in the test on MDA-MB-231 breast, in the test on 786-0 renal and in the test on SR leukemia was above 100 µM in each case.

For the compound `Cn1c(-c2cccs2)cc(-c2cccs2)c1-c1ccsc1`, the TGI in the test on SK-MEL-2 melanoma was 98.1 µM; with KM12 colon, above 100 µM; with MDA-MB-435, above 100 µM; in the test with M14 melanoma, above 100 µM; with DU-145 prostate, above 100 µM; with BT-549 breast it was above 100 µM. Further, the TGI in the test with SNB-19 CNS, in the test with SF-268 CNS, in the test with MDA-N, with MDA-MB-231 breast, in the test with 786-0 renal and with SR leukemia was above 100 µM in each case.

As to `C=C1C(=O)OC2C1CC(O)/C(C)=C\CCC1(C)OC21` (stereo not given), the TGI in the test on SK-MEL-2 melanoma is 44.5 µM; with KM12 colon, above 100 µM; in the test on MDA-MB-435 it was 89.6 µM; in the test on M14 melanoma, 64.4 µM; with DU-145 prostate, above 100 µM; with BT-549 breast it was 43.2 µM. The TGI with SNB-19 CNS is above 100 µM; in the test with SF-268 CNS, 86.6 µM; with MDA-N, 36.2 µM; in the test on MDA-MB-231 breast it was 35.4 µM; in the test with 786-0 renal, above 100 µM; in the test on SR leukemia, 61.2 µM.

Take `CNC(=S)N/N=C/c1cccc(C)n1`: the TGI in the test with SK-MEL-2 melanoma was above 100 µM; with KM12 colon, above 100 µM; in the test with MDA-MB-435, above 100 µM; in the test on M14 melanoma it was 47.8 µM; with DU-145 prostate, above 83.2 µM; in the test with BT-549 breast, 86.3 µM. For the same compound, the TGI with SNB-19 CNS was above 100 µM; in the test on SF-268 CNS, above 76 µM; with MDA-N it was above 100 µM; in the test on MDA-MB-231 breast it was above 89 µM; in the test on 786-0 renal it was 98.5 µM; in the test on SR leukemia, above 78.1 µM.

Consider `CC[C@H]1OC([C@H](O)C/C=C\C#C[Si](C)(C)C)C/C=C\C[C@H]1O[Si](C)(C)C(C)(C)C` (stereo not given in full), for which the TGI with SK-MEL-2 melanoma, in the test with KM12 colon, in the test on MDA-MB-435, in the test with M14 melanoma, in the test with DU-145 prostate and in the test on BT-549 breast was above 100 µM in each case. Besides, the TGI with SNB-19 CNS, with SF-268 CNS, with MDA-N, in the test on MDA-MB-231 breast, with 786-0 renal and in the test on SR leukemia was above 100 µM throughout.
